Results on one compound are retold here after patent US20050164210A1, “Regulated polymerase III expression systems and related methods” (priority 2004, published 2005).

In this experiment the test system is VgEcR and RXR. As to the kind of experiment: murA induction of the E/GRE/Hsmin promoter: GFP+ cells by fluorescent microscopy and FACS, Western blot of GAL4-Oct-2Q(Q→A) and EGFP. Type of experiment: cell-based. Particulars: 72 h. How it is done: High titer virus were produced by calcium phosphate transfection of retroviral DNA constructs into the LinX amphotrophic retroviral packaging cell line (17) followed by incubation with dexamethasone/butyrate (1 μM/ml) of packagers at 32° C. for 3 days. Infections were carried out by harvesting supernatants from LinX packagers, filtered through a […] membrane (Millipore), followed by the addition of polybrene (8 μM) to supernatants, finally overlaying onto actively dividing host cells (70% confluent). Cells were gently spun at room temperature for 30 min, incubated at 32° C. for 6 h. […]
Western blot analysis and antibodies. […] Signal intensities were determined after background corrections by using Alpha-Imager 2000 Documentation and Analysis Software (Alpha Innotech, San Leandro, Calif.). The percentage reduction in band intensity for each concentration of murA was calculated relative to the uninduced samples and normalized against β-tubulin.
The ecdysone inducible system is comprised of three Moloney murine leukemia virus (MoMLV)-based retroviral vectors, the two vectors expressing nuclear receptors/transcription factors VgEcR and RXR, and a third construct, pEind-RNAi expressing a chimeric transactivator GAL4-Oct-2^Q(Q→A), and an internal ribosomal entry site (IRES) linked enhanced green fluorescence protein (EGFP) under an inducible promoter E/GRE/Hsmin (FIG. 1A). […]

For the compound `CC(C)CC[C@@H](O)[C@](C)(O)[C@H]1CC[C@@]2(O)C3=CC(=O)[C@]4(O)C[C@@H](O)[C@@H](O)C[C@]4(C)[C@H]3[C@H](O)C[C@]12C` [murA, muristerone A], under “5 μM murA, versus untreated controls”, the “Levels of GAL4-Oct-2Q(Q→A) and EGFP protein (Western blot)” value is recorded as “increased levels”. Besides, under “sorted stable cells, 0.5 μM murA (microscopy), 5 μM murA (FACS)”, the “GFP+ cells following induction with murA” value is listed as more than 95%.
